These results are taken from patent US20110097274A1, “Carbon-11 and fluorine-18 labeled radioligands for positron emission tomography (PET) imaging for the brain serotonin transporters” (priority 2002, published 2011).

The structures appear in SMILES notation.

Data set [1] is described as follows: Biodistribution of labeled radioligands in male Sprague-Dawley rats. As to conditions: mean ± SD, n = 3. It is filed as in vivo. An excerpt: Appropriately labeled compounds were studied in animals to assess their binding characteristics in the brain. Procedures for these biodistribution studies are as follows. […] The brain regions (cerebellum, hippocampus, striatum, frontal cortex, thalamus and hypothalamus), along with samples of blood and part of the tail, were removed, weighed, and counted in a Packard Cobra II gamma counter. The percent injected dose (% ID) of the decay- and tail-corrected activity in the brain regions and blood were calculated based upon C-11 standards prepared from the injection solution, and the % ID/g were calculated using the tissue weights.

Data set [2] is described as follows: Experiment 5: plasma clearance of ^11C and ^18F labeled AFM, AFA, AFE in one baboon. It is filed as in vivo. As to conditions: one adult male baboon, n = 1 to 4 scans. The method, then: (§1) General scanning methods were as described in Huang et al. (2002). Arterial input function was measured and corrected for metabolites.
Data set [3] deals with SERT. The experiment in a line: Experiment 5: PET brain imaging of ^11C and ^18F labeled AFM, AFA, AFE in one baboon. As to conditions: one adult male baboon, n = 1 to 4 scans, two-compartment model. It is filed as in vivo. The method, then: as §1
Activity distributed in the brain in accordance to the known density distribution pattern of SERT (Laruelle et al., 1988). […] Data were analyzed with a two-compartment model, using the metabolite-corrected arterial time-activity curve as input function. This analysis provided the regional distribution volumes (VT, mL/g).
The nonspecific distribution volume, measured as the distribution volume of the cerebellum (a region with negligible SERT density) was in a similar range for all tracers (10 to 30 mL/g, Table 16).
The specific to nonspecific partition coefficient, V3″, was calculated as the ratio of VT in the region of interest (ROI) to cerebellum VT minus one. V3″ provides a measure related to receptor parameters as follows: […]

For data set [4], the system named is SERT. As to conditions: same baboon, one tissue compartment model.
Experimental: The animal was then injected with [^18F]AFM (2.60 mCi, 425 Ci/mmol, 1.51 μg) and scanned for 90 minutes. Analysis of the input function and brain uptake was performed as described in the previous section. […] Arterial activity was corrected for parent fraction to form the input function.
Data were analyzed with a one tissue compartment model.
Data set [5] is described as follows: Experiment 4: plasma analysis, [^11C]AFM and [^18F]AFM in the same baboon.
Experimental: The animal was then injected with [^18F]AFM (2.60 mCi, 425 Ci/mmol, 1.51 μg) and scanned for 90 minutes. […] Arterial activity was corrected for parent fraction to form the input function.
The conditions of data set [6]: baboons (Acton et al., 1999a); cited from earlier work.
For data set [7], the system named is SERT. As to conditions: literature; cited from earlier work.

Consider `CN(C)Cc1ccccc1Sc1ccc(C[18F])cc1N` [[^18F]AFM, [^18F]2-[2-(Dimethylaminomethyl)phenylthio]-5-fluoromethylphenylamine], for which the “% ID/g Blood” value in data set [1] (10 min post-injection) turned out to be 0.37 ± 0.04 % ID/g; in data set [1] (30 min post-injection), 0.28 ± 0.02 % ID/g; in data set [1] (60 min post-injection), 0.10 ± 0.04 % ID/g; in data set [1] (90 min post-injection), 0.08 ± 0.03 % ID/g; in data set [1] (120 min post-injection) it was 0.04 ± 0.00 % ID/g. Besides, the “% ID/g Cerebellum” value in data set [1] (10 min post-injection) was 0.33 ± 0.04 % ID/g; in data set [1] (30 min post-injection) it was 0.23 ± 0.03 % ID/g; in data set [1] (60 min post-injection), 0.13 ± 0.02 % ID/g; in data set [1] (90 min post-injection) it was 0.08 ± 0.01 % ID/g; in data set [1] (120 min post-injection), 0.07 ± 0.02 % ID/g. In addition, the “% ID/g Frontal Ctx.” value in data set [1] (10 min post-injection) came out at 0.82 ± 0.14 % ID/g; in data set [1] (30 min post-injection), 0.99 ± 0.20 % ID/g; in data set [1] (60 min post-injection) it was 0.71 ± 0.18 % ID/g; in data set [1] (90 min post-injection), 0.52 ± 0.19 % ID/g; in data set [1] (120 min post-injection), 0.38 ± 0.09 % ID/g. For the same compound, the “% ID/g Hippocamp.” value in data set [1] (10 min post-injection) is listed as 0.51 ± 0.07 % ID/g; in data set [1] (30 min post-injection), 0.64 ± 0.12 % ID/g; in data set [1] (60 min post-injection), 0.45 ± 0.09 % ID/g; in data set [1] (90 min post-injection), 0.36 ± 0.12 % ID/g; in data set [1] (120 min post-injection), 0.28 ± 0.05 % ID/g. Moreover, the “% ID/g Hypothal.” value in data set [1] (10 min post-injection) came out at 0.70 ± 0.08 % ID/g; in data set [1] (30 min post-injection), 0.82 ± 0.16 % ID/g; in data set [1] (60 min post-injection), 0.71 ± 0.14 % ID/g; in data set [1] (90 min post-injection), 0.58 ± 0.13 % ID/g; in data set [1] (120 min post-injection) it was 0.55 ± 0.08 % ID/g. The “% ID/g Striatum” value in data set [1] (10 min post-injection) is on record as 0.69 ± 0.15 % ID/g; in data set [1] (30 min post-injection) it was 0.83 ± 0.12 % ID/g; in data set [1] (60 min post-injection) it was 0.57 ± 0.12 % ID/g; in data set [1] (90 min post-injection), 0.45 ± 0.17 % ID/g; in data set [1] (120 min post-injection), 0.42 ± 0.10 % ID/g. For the same compound, the “% ID/g Thalamus” value turned out to be 0.72 ± 0.13 % ID/g in data set [1] (10 min post-injection); 0.88 ± 0.06 % ID/g in data set [1] (30 min post-injection); 0.67 ± 0.15 % ID/g in data set [1] (60 min post-injection); 0.50 ± 0.15 % ID/g in data set [1] (90 min post-injection); 0.56 ± 0.10 % ID/g in data set [1] (120 min post-injection). Besides, the Clearance in data set [2] is 40 ± 1 L/h. Also, the “Cerebellum V (nonspecific distribution volume)” value with SERT [3] stood at 23 ± 6 mL/g. For the same compound, the “Thalamus V3″” value in the data set on SERT [4] turned out to be 2.27. Further, the “Clearance of the parent compound” value in data set [5] was 54 L/h. In addition, the “Percent plasma activity corresponding to the parent compound” value in data set [5] (2 minutes) was found to be 63.5%; in data set [5] (4 minutes), 40.0%; in data set [5] (12 minutes), 21.3%; in data set [5] (30 minutes) it was 8.7%; in data set [5] (60 minutes), 5.3%; in data set [5] (90 minutes), 4.6%.

In the case of `CN(C)Cc1ccccc1Sc1ccc([123I])cc1N` [[^123I]ADAM], in data set [6], the “VT CER measured with SPECT” value is 2.25 ± 0.46 mL/g. Further, in the data set on SERT [7], the “Target to background ratio in vivo compared to [^123I]IDAM” value was “four times higher”.
